Assay results as given in ChEMBL document CHEMBL4665876, “Protection of all cleavable sites of DNA with the multiple CGCG or continuous CGG sites from the restriction enzyme, indicative of simultaneous binding of small ligands” (Bioorg Med Chem, 2020).
Active and inactive are the calls of the source. The rule behind the calls is not given here.

Tests used:
Type in all cases: nucleic-acid assay
[1] = test system: Nucleic Acid; experiment: Binding affinity to GC2(5) site of DNA (unknown origin) assessed as inhibition of ACCII mediated DNA hydrolysis at 50 uM preincubated for 14 hrs followed by ACCII addition and measured after 120 mins by SYBR staining-based PAGE analysis; conditions: Homo sapiens
[2] = test system: Nucleic Acid; experiment: Binding affinity to GC1 of DNA (unknown origin) assessed as inhibition of ACCII mediated DNA hydrolysis at 50 uM preincubated for 14 hrs followed by ACCII addition and measured after 120 mins by SYBR staining-based PAGE analysis; conditions: Homo sapiens
[3] = test system: Nucleic Acid; experiment: Binding affinity to GC5(5) of DNA (unknown origin) assessed as inhibition of ACCII mediated DNA hydrolysis at 10 to 50 uM preincubated for 14 hrs followed by ACCII addition and measured after 120 mins by SYBR staining-based PAGE analysis; conditions: Homo sapiens; dose microM 10-50, time 14.0 hrs
[4] = test system: Nucleic Acid; experiment: Binding affinity to CGCG site of DNA (unknown origin) at 10 uM by PAGE analysis
[5] = test system: Nucleic Acid; experiment: Binding affinity to d(CGG)16 of DNA (unknown origin) assessed as inhibition of Fnu4HI mediated DNA hydrolysis at 10 uM preincubated for 14 hrs followed by Fnu4HI addition and measured after 60 mins by SYBR staining-based PAGE analysis; conditions: Homo sapiens
[6] = test system: Nucleic Acid; experiment: Binding affinity to GC5(2) of DNA (unknown origin) assessed as inhibition of ACCII mediated DNA hydrolysis at 10 to 50 uM preincubated for 14 hrs followed by ACCII addition and measured after 120 mins by SYBR staining-based PAGE analysis; conditions: Homo sapiens; dose microM 10-50, time 14.0 hrs
[7] = test system: Nucleic Acid; experiment: Binding affinity to d(CGG) of DNA (unknown origin) assessed as inhibition of Fnu4HI mediated DNA hydrolysis preincubated for 14 hrs followed by Fnu4HI addition and measured after 60 mins by SYBR staining-based PAGE analysis; conditions: Homo sapiens
[8] = test system: Nucleic Acid; experiment: Binding affinity to GC5(5) of DNA (unknown origin) assessed as inhibition of ACCII mediated DNA hydrolysis at 1 uM preincubated for 14 hrs followed by ACCII addition and measured after 120 mins by SYBR staining-based PAGE analysis; conditions: Homo sapiens, time 16.0 hrs
[9] = test system: Nucleic Acid; experiment: Binding affinity to d(CGG)10 of DNA (unknown origin) assessed as inhibition of Fnu4HI mediated DNA hydrolysis at 25 uM preincubated for 14 hrs followed by Fnu4HI addition and measured after 60 mins by SYBR staining-based PAGE analysis; conditions: Homo sapiens
[10] = test system: Nucleic Acid; experiment: Binding affinity to d(CGG)16 of DNA (unknown origin) assessed as inhibition of Fnu4HI mediated DNA hydrolysis at 25 uM preincubated for 14 hrs followed by Fnu4HI addition and measured after 60 mins by SYBR staining-based PAGE analysis; conditions: Homo sapiens

SMILES | Activity [4] | Activity [8] | further results
CCC[C@@H]1C(=O)c2c(cc3cc(OCCOCCOCC(=O)NO)cc(O)c3c2O)C[C@H]1C | Active | – | Activity [1]: Active; Activity [2]: inactive; Activity [3]: Active
C[C@H]1CC(=O)c2c(cc3cc(OCC(=O)NO)cc(O)c3c2O)C1 | inactive | – | Activity [5]: Active
O=C(COCCOc1cc(O)c2c(O)c3c(cc2c1)CCCC3=O)NO | – | – | Activity [6]: Active
CCC[C@@H]1C(=O)c2c(cc3cc(O)cc(O)c3c2O)C[C@H]1C | inactive | – | –
CCC[C@@H]1C(=O)c2c(cc3cc(OCCOCCOCC(=O)O)cc(O)c3c2O)C[C@H]1C | – | Active | –
C[C@H]1CC(=O)c2c(cc3cc(OCCOCC(=O)NO)cc(O)c3c2O)C1 | – | – | Activity [9]: Active; Activity [6]: Active; Activity [10]: Active

More lines, main results first:

Activity [4] | Activity [8] | SMILES | further results
inactive | – | O=C1CCCc2cc3cc(O)cc(O)c3c(O)c21 | –
Active | Active | C[C@H]1CC(=O)c2c(cc3cc(OCCOCCOCC(=O)NO)cc(O)c3c2O)C1 | Activity [7]: inactive
– | inactive | CCC[C@@H]1C(=O)c2c(cc3cc(OCCOCCOCCOC)cc(O)c3c2O)C[C@H]1C | –
inactive | – | C[C@H]1CC(=O)c2c(cc3cc(O)cc(O)c3c2O)C1 | –
